Reference: patent US8822451B2, “Modulators of ATP-binding cassette transporters” (Vertex Pharmaceuticals Incorporated, priority 2005, dated 2014)

Target: T1, […]F508-CFTR (Homo sapiens, UniProt P13569, DEL508-508)
T1 construct: expressed in transfected cells
Assay: Assay results of Table 3: ΔF508-CFTR modulation, membrane potential optical assay (assay format not stated)
Format: cell-based
Conditions: NIH3T3 mouse fibroblasts stably expressing […]F508-CFTR (optical assays); for Efficacy: efficacy range; for EC50: potency range
How it was run: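 Two VIPR II FRET voltage-dye formats in ΔF508-CFTR NIH3T3 cells yield EC50 and efficacy. Potentiator mode: 27° C.-corrected cells get compound in Cl⁻-free medium, forskolin 2-10 μM after 22 s (final Cl⁻ 28 mM). Corrector mode: compound 16 h at 37° C., activation with forskolin 10 μM plus genistein 20 μM.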

T1 sequence (P13569 with tags, fused parts or gaps DEL508-508): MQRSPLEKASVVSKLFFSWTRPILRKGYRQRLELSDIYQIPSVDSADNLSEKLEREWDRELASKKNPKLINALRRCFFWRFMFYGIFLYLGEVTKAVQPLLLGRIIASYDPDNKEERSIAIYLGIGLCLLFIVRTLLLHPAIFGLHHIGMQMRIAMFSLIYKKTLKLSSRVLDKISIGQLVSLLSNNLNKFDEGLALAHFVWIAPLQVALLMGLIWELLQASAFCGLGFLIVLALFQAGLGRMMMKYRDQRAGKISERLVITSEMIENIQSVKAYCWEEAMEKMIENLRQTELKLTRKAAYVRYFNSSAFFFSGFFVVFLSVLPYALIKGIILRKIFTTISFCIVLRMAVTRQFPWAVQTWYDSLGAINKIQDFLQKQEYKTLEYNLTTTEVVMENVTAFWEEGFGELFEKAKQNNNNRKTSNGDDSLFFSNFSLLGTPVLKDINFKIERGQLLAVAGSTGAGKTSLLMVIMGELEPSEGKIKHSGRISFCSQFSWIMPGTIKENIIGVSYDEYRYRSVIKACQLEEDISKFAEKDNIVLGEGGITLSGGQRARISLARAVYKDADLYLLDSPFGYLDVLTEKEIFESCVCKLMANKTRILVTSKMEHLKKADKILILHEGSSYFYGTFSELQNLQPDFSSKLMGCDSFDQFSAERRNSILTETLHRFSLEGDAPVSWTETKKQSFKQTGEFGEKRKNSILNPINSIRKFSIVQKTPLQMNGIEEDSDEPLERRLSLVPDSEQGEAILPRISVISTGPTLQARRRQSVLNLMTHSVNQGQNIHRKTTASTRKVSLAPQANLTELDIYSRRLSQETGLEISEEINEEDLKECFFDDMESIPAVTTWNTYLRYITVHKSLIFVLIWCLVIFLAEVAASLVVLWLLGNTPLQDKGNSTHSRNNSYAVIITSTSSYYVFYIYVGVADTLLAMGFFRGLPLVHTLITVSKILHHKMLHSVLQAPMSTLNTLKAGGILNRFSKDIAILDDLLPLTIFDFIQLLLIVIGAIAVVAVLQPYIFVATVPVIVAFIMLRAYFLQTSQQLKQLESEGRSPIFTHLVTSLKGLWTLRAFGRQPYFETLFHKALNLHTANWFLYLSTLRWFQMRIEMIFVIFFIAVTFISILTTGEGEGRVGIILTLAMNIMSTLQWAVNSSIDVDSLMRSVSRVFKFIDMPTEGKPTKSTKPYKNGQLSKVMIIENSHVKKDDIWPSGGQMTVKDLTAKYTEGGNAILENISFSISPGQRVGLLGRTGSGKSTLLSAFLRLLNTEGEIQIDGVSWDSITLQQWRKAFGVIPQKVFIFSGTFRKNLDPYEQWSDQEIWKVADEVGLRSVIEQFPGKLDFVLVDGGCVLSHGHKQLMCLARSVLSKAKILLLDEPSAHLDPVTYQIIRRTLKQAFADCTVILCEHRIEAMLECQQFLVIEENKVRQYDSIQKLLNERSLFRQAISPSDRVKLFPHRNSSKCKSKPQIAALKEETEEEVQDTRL

Row | Compound | Efficacy | EC50 [µM]
1 | CCOc1cccc(-c2cc(C(N)=O)nc(N(CC)CC)n2)c1 [Compound 212] | +++ (+++ corresponds to Efficacy greater than 100) | < 1
2 | CC1CC(C)CN(c2nc(C(N)=O)cc(-c3ccccc3)n2)C1 (stereo not drawn) [Compound 113] | ++ (++ corresponds to Efficacy between 100 and 50) | 1 to 5
3 | NC(=O)c1cc(-c2ccccc2Oc2ccccc2)nc(N2CCCCC2)n1 [Compound 146] | +++ (+++ corresponds to Efficacy greater than 100) | 1 to 5
4 | CCN(CC)c1nc(C(=O)NCc2ccccc2)cc(-c2ccccc2)n1 [Compound 97] | ++ (++ corresponds to Efficacy between 100 and 50) | > 5
5 | NC(=O)c1cc(-c2ccc(OC(F)(F)F)cc2)nc(N2CCCCC2)n1 [Compound 182] | + (+ corresponds to Efficacy less than 50) | 1 to 5
6 | CCN(CCO)c1nc(C(=O)NC)cc(-c2ccccc2)n1 [Compound 156] | + (+ corresponds to Efficacy less than 50) | > 5
7 | NC(=O)c1cc(-c2ccc(Cl)c(Cl)c2)nc(N2CCCCC2)n1 [Compound 140] | ++ (++ corresponds to Efficacy between 100 and 50) | 1 to 5
8 | NC(=O)c1cc(-c2ccccc2)nc(N2CCC(O)(c3cccc(C(F)(F)F)c3)CC2)n1 [Compound 96] | ++ (++ corresponds to Efficacy between 100 and 50) | > 5
9 | NC(=O)c1cc(-c2cc(Cl)ccc2Cl)nc(N2CCCCC2)n1 [Compound 202] | ++ (++ corresponds to Efficacy between 100 and 50) | 1 to 5
10 | N#Cc1cccc(-c2cc(C(N)=O)nc(N3CCCCC3)n2)c1 [Compound 111] | ++ (++ corresponds to Efficacy between 100 and 50) | > 5
11 | NC(=O)c1cc(-c2cc(F)cc(F)c2)nc(N2CCCCC2)n1 [Compound 219] | + (+ corresponds to Efficacy less than 50) | 1 to 5
12 | CCN(CC)c1nc(C(N)=O)cc(-c2ccc(S(=O)(=O)CC)cc2)n1 [Compound 155] | ++ (++ corresponds to Efficacy between 100 and 50) | > 5
13 | CCN(CC)c1nc(C(=O)N(C)C)cc(-c2ccccc2)n1 [Compound 117] | +++ (+++ corresponds to Efficacy greater than 100) | > 5
14 | NC(=O)c1cc(-c2ccccc2)nc(N2CCC(C(=O)c3ccc(Cl)cc3)CC2)n1 [Compound 28] | ++ (++ corresponds to Efficacy between 100 and 50) | > 5
15 | CCN(CC)c1nc(C(N)=O)cc(-c2cc(F)ccc2F)n1 [Compound 163] | ++ (++ corresponds to Efficacy between 100 and 50) | < 1
16 | CCN(CC)c1nc(C(N)=O)cc(-c2ccc(C)c(C)c2)n1 [Compound 207] | +++ (+++ corresponds to Efficacy greater than 100) | 1 to 5
17 | NC(=O)c1cc(-c2cccc(F)c2)nc(N2CCCCC2)n1 [Compound 122] | +++ (+++ corresponds to Efficacy greater than 100) | > 5
18 | CN(Cc1ccccc1)c1nc(C(N)=O)cc(-c2ccccc2)n1 [Compound 164] | ++ (++ corresponds to Efficacy between 100 and 50) | 1 to 5
19 | NC(=O)c1cc(-c2ccccc2)nc(N2CC=C(c3ccccc3)CC2)n1 [Compound 53] | ++ (++ corresponds to Efficacy between 100 and 50) | > 5

Row | Compound | Efficacy | EC50 [µM]
20 | CCN(CC)c1nc(C(N)=O)cc(-c2ccc(OC)nc2)n1 [Compound 229] | ++ (++ corresponds to Efficacy between 100 and 50) | 1 to 5
21 | CNc1nc(C(N)=O)cc(-c2cccc(OC)c2)n1 [Compound 231] | ++ (++ corresponds to Efficacy between 100 and 50) | > 5
22 | N#Cc1ccc(-c2cc(C(N)=O)nc(N3CCCCC3)n2)cc1 [Compound 130] | + (+ corresponds to Efficacy less than 50) | > 5
23 | CC(C)CNc1nc(C(N)=O)cc(-c2ccccc2)n1 [Compound 51] | ++ (++ corresponds to Efficacy between 100 and 50) | > 5
24 | COc1ccc(-c2cc(C(N)=O)nc(NCC3CC3)n2)cc1 [Compound 189] | + (+ corresponds to Efficacy less than 50) | > 5
25 | CCN(CC)c1nc(C(N)=O)cc(-c2ccc(OC)cc2)n1 [Compound 109] | +++ (+++ corresponds to Efficacy greater than 100) | < 1
26 | NC(=O)c1cc(-c2ccccc2)nc(N2CC=CC2)n1 [Compound 79] | +++ (+++ corresponds to Efficacy greater than 100) | 1 to 5
27 | NC(=O)c1cc(-c2ccccc2)nc(NCc2ccco2)n1 [Compound 216] | ++ (++ corresponds to Efficacy between 100 and 50) | > 5
28 | CC(C)CN(CC(C)C)c1nc(C(N)=O)cc(-c2ccccc2)n1 [Compound 196] | + (+ corresponds to Efficacy less than 50) | 1 to 5
29 | CCN(CC)c1nc(C(N)=O)cc(-c2ccc(Cl)cc2)n1 [Compound 147] | ++ (++ corresponds to Efficacy between 100 and 50) | < 1
30 | CCN(CC)c1nc(C(N)=O)cc(-c2cc(Cl)ccc2OC)n1 [Compound 12] | ++ (++ corresponds to Efficacy between 100 and 50) | < 1
31 | CCN(CC)c1nc(C(N)=O)cc(-c2c(F)cccc2F)n1 [Compound 125] | ++ (++ corresponds to Efficacy between 100 and 50) | < 1
32 | COc1cccc(-c2cc(C(N)=O)nc(N(C)C)n2)c1 [Compound 77] | + (+ corresponds to Efficacy less than 50) | > 5
33 | NC(=O)c1cc(-c2ccccc2C(F)(F)F)nc(N2CCCCC2)n1 [Compound 72] | ++ (++ corresponds to Efficacy between 100 and 50) | 1 to 5
34 | NC(=O)c1cc(-c2ccccc2)nc(N2CCSCC2)n1 [Compound 33] | +++ (+++ corresponds to Efficacy greater than 100) | 1 to 5
35 | C=C(C)CN(CC)c1nc(C(N)=O)cc(-c2ccccc2)n1 [Compound 188] | +++ (+++ corresponds to Efficacy greater than 100) | < 1
36 | NC(=O)c1cc(-c2ccccc2)nc(NCc2ccccc2)n1 [Compound 126] | ++ (++ corresponds to Efficacy between 100 and 50) | > 5
37 | NC(=O)c1cc(-c2ccccc2)nc(N2CCCCCC2)n1 [Compound 68] | ++ (++ corresponds to Efficacy between 100 and 50) | 1 to 5
38 | CCN(CC)c1nc(C(N)=O)cc(-c2cc(OC)ccc2OC)n1 [Compound 217] | ++ (++ corresponds to Efficacy between 100 and 50) | < 1

Row | Compound | Efficacy | EC50 [µM]
39 | CCCN(CC1CC1)c1nc(C(N)=O)cc(-c2ccccc2)n1 [Compound 87] | ++ (++ corresponds to Efficacy between 100 and 50) | 1 to 5
40 | CCN(CC)c1nc(C(N)=O)cc(-c2ccccc2Oc2ccccc2)n1 [Compound 24] | ++ (++ corresponds to Efficacy between 100 and 50) | < 1
41 | COCCCNc1nc(C(N)=O)cc(-c2cccc(OC)c2)n1 [Compound 88] | + (+ corresponds to Efficacy less than 50) | > 5
42 | NC(=O)c1cc(-c2ccc(Cl)cc2Cl)nc(N2CCCCC2)n1 [Compound 106] | +++ (+++ corresponds to Efficacy greater than 100) | 1 to 5
43 | CCN(CC)c1nc(C(N)=O)cc(-c2ccccc2OC)n1 [Compound 110] | +++ (+++ corresponds to Efficacy greater than 100) | < 1
44 | CC(C)(C)Nc1nc(C(N)=O)cc(-c2ccccc2)n1 [Compound 71] | ++ (++ corresponds to Efficacy between 100 and 50) | > 5
45 | CCN(CC)c1nc(C(N)=O)cc(-c2cnc(OC)nc2OC)n1 [Compound 174] | ++ (++ corresponds to Efficacy between 100 and 50) | > 5
46 | C=CCNc1nc(C(N)=O)cc(-c2cccc(OC)c2)n1 [Compound 48] | ++ (++ corresponds to Efficacy between 100 and 50) | > 5
47 | NC(=O)c1cc(-c2ccccc2)nc(N2CCC(CCO)CC2)n1 [Compound 181] | ++ (++ corresponds to Efficacy between 100 and 50) | > 5
48 | NC(=O)c1cc(-c2ccccc2)nc(N2CCC2)n1 [Compound 183] | ++ (++ corresponds to Efficacy between 100 and 50) | > 5
49 | CCOC(=O)CN(C)c1nc(C(N)=O)cc(-c2ccccc2)n1 [Compound 209] | ++ (++ corresponds to Efficacy between 100 and 50) | 1 to 5
50 | CCCCCN(C)c1nc(C(N)=O)cc(-c2ccccc2)n1 [Compound 186] | +++ (+++ corresponds to Efficacy greater than 100) | 1 to 5
51 | C=CCN(C)c1nc(C(N)=O)cc(-c2ccccc2)n1 [Compound 14] | +++ (+++ corresponds to Efficacy greater than 100) | 1 to 5
52 | COc1ccc(-c2cc(C(N)=O)nc(N3CCCCC3)n2)cc1OC [Compound 124] | +++ (+++ corresponds to Efficacy greater than 100) | 1 to 5
53 | CCN(CC)c1nc(C(N)=O)cc(-c2cccc(C(=O)OC(C)C)c2)n1 [Compound 85] | ++ (++ corresponds to Efficacy between 100 and 50) | < 1
54 | COc1cccc(-c2cc(C(N)=O)nc(N)n2)c1 [Compound 191] | + (+ corresponds to Efficacy less than 50) | > 5
55 | NC(=O)c1cc(-c2ccccc2)nc(N2CCOCC2)n1 [Compound 167] | ++ (++ corresponds to Efficacy between 100 and 50) | > 5
56 | NC(=O)c1cc(-c2ccccc2)nc(N2CCCC(CO)C2)n1 (stereo not drawn) [Compound 43] | + (+ corresponds to Efficacy less than 50) | > 5
57 | NC(=O)c1cc(-c2ccccc2)nc(N(Cc2ccccc2)Cc2ccccc2)n1 [Compound 92] | ++ (++ corresponds to Efficacy between 100 and 50) | 1 to 5
